Values quoted from earlier work, collected in patent US9775789B2, “Topical liposome compositions containing phenolic anti-inflammatory agents and their methods of preparation” (D& J ROSEE INC., priority 2012, dated 2017).

Assays:
[1] = system: cultured squamous carcinoma cells; conditions: in vitro
[2] = in vitro; superoxide anion and hydroxyl radicals
[3] = system: T. rubrum
[4] = system: tumor; conditions: topical application and UV radiation versus controls
[5] = system: TNF-α and INF-γ; conditions: versus control; SEB intraperitoneally
[6] = system: cultured keratinocytes; conditions: in vitro
[7] = system: keratinocytes; conditions: 6-week application under occlusion
[8] = system: atopic dermatitis (AD) type skin lesions; conditions: daily topical application after allergen extract; versus vehicle
[9] = system: keratinocytes; conditions: applied during 48 hours, then simulated solar radiation (2 MED); skin biopsy
[10] = system: MRSA; conditions: time-kill study
[11] = system: human skin
[12] = system: nuclear factor kappa beta (NF-κB) in normal human epidermal keratinocytes (NHEK); conditions: pretreatment of keratinocytes before UVB exposure
[13] = system: MRSA; conditions: all 53 MRSA clinical isolates

O=C(O[C@@H]1Cc2c(O)cc(O)cc2O[C@@H]1c1cc(O)c(O)c(O)c1)c1cc(O)c(O)c(O)c1 [EGCG, epigallocatechin gallate]
action against cultured squamous carcinoma cells (apoptosis) [1]: inhibitory action | ROS scavenging activity [2]: superior to other tea catechins | susceptibility of T. rubrum compared with reference antifungals [3]: more susceptible than to flucytosine and similar to fluconazole | MIC ([3]; 11 clinical isolates of T. rubrum): 1-16 μg per mL | tumor incidence and size [4]: significant reductions | serum levels of TNF-α and INF-γ [5]: significantly reduced | effect on cultured keratinocytes [6]: dose-dependent stimulatory effect | epidermal thickness [7]: significant increase | proliferation of keratinocytes ([7]; versus vehicle-treated samples): significantly stimulated | clinical signs (erythema, edema, scaling and excoriation) [8]: significantly lessened | ear swelling [8]: significantly reduced | greater increase in keratinocyte cell numbers versus vehicle-treated [9]: 4 fold | bactericidal concentration ([10]; one isolate): 6 times the MIC | bacteriostatic concentration ([10]; one isolate): 1-2 times the MIC | bactericidal concentration, aqueous solution ([10]; equivalent of 6 times the MIC): ~0.04% | UV-induced infiltration of inflammatory leukocytes into the skin ([11]; EGCG pretreatment): inhibited | UV-induced production of hydrogen peroxide, nitric oxide and lipid peroxide in both epidermis and dermis ([11]; topical application before a single UV exposure (4× MED), punch biopsies): markedly decreased | UVB-induced activation of NFκB [12]: significant dose- and time-dependent inhibition | minimal inhibitory concentration (MIC) [13]: 32 to 128 µg/mL
